# Results reported in patent US20190125790A1, “USE OF HYPOCHLOROUS ACID AS A TOPICAL ANTIMICROBIAL” (BIIOSMART TECHNOLOGIES LLC, priority 2016, published 2019).
# Assays:
# [1] = system: Human Papillomavirus; test: Efficacy at 30 seconds (Table 2); format: cell-based; settings: 0.01 to 0.05% aqueous solution
# [2] = USP <51> Antimicrobial Effectiveness Testing; format: cell-based; settings: 0.05% HOCl aqueous solution
# Excerpt: A 0.05% HOCl aqueous solution is intended for the cleansing and removal of the most common bacteria and viruses associated with skin-to-skin sexually transmitted diseases (pre and post sexual activity) to promote general sexual hygiene.
# [3] = system: E. coli NDM-1; test: Efficacy at 30 seconds (Table 2); format: cell-based; settings: 0.01 to 0.05% aqueous solution
# [4] = Sub. Chronic Toxicity. 90 days; format: in vivo
# Excerpt: (§1) Table 5. contains the results of several acute and sub-chronic toxicity tests.
# [5] = Fournier's gangrene patient case; format: in vivo, human; settings: HOCl (0.046%) aqueous solution; one patient; four step surgical process; 24 hours period
# Protocol: A HOCl (0.046%) aqueous solution was preformed in a four step surgical process to a patient that was infected with Fournier's gangrene. Skin was removed from the infected area before administering the HOCl solution on the infected areas in a 24 hours period. Following application, skin graphs were placed over the surgical wound for rehabilitation process.
# [6] = system: K. pneumoniae - ESBL; test: ASTM E2315 Time Kill Assay for Antimicrobial Agents; format: cell-based; settings: 0.046% HOCl aqueous solution; 30 seconds; high organic load
# Protocol: (§2) Table 3. below represents the efficacy of 0.046% aqueous hypochlorous acid solution in the presence of high organic load. ASTM E2315 Time Kill Assay for Antimicrobial Agents. The study was performed in ATS labs in Minnesota recommended by the U.S. FDA's Tentative Final Monograph for OTC Healthcare Antiseptic Drug. […] Additional times were evaluated: 1 minute, 5 minutes, and 10 minutes, all with and without organic soil (Using 10% whole milk and 5% Fetal Bovine Serum). The trend in the efficiency is maintained under the same proportions.
# [7] = system: S. Epidermidis; test: as above; format: cell-based; settings: 0.046% HOCl aqueous solution; 30 seconds; high organic load
# Protocol: as §2
# [8] = system: P. aeruginosa; test: as above; format: cell-based; settings: 0.046% HOCl aqueous solution; 30 seconds; high organic load
# Protocol: as §2
# [9] = system: Haemophilus influenzae; test: as above; format: cell-based; settings: 0.046% HOCl aqueous solution; 30 seconds; high organic load
# Protocol: as §2
# [10] = system: E. faecium; test: as above; format: cell-based; settings: 0.046% HOCl aqueous solution; 30 seconds; high organic load
# Protocol: as §2
# [11] = system: P. mirabilis; test: as above; format: cell-based; settings: 0.046% HOCl aqueous solution; 30 seconds; high organic load
# Protocol: as §2
# [12] = system: K. pneumoniae NDM-1; test: as above; format: cell-based; settings: 0.046% HOCl aqueous solution; 30 seconds; high organic load
# Protocol: as §2
# [13] = system: A. baumanii; test: as above; format: cell-based; settings: 0.046% HOCl aqueous solution; 30 seconds; high organic load
# Protocol: as §2
# [14] = system: K. oxytoca; test: as above; format: cell-based; settings: 0.046% HOCl aqueous solution; 30 seconds; high organic load
# Protocol: as §2
# [15] = system: Enterobacter aerogenes; test: as above; format: cell-based; settings: 0.046% HOCl aqueous solution; 30 seconds; high organic load
# Protocol: as §2
# [16] = system: Herpes Simplex; test: Efficacy at 30 seconds (Table 2); format: cell-based; settings: 0.01 to 0.05% aqueous solution
# [17] = system: VRE; test: Efficacy at 30 seconds (Table 2); format: cell-based, vancomycin-resistant enterococci; settings: 0.01 to 0.05% aqueous solution
# [18] = system: E. coli; test: Efficacy at 30 seconds (Table 2); settings: 0.01 to 0.05% aqueous solution
# [19] = system: all microorganisms tested; test: ASTM E2315 Time Kill Assay, summary of Table 3; format: cell-based; settings: concentration of 0.046%, 30 seconds
# Protocol: as §2
# [20] = Acute Dermal Toxicity; format: in vivo; settings: Albino New Zealand Rabbits, 0.05% HOCl solution, males and females
# Excerpt: as §1
# [21] = Randomized double blind placebo controlled trial as sexual cleanser; format: in vivo, human; settings: six months
# Excerpt: The purpose of this study was to evaluate the real world use and effect of the solution in a group of 47 willing participants located in Cartagena, Colombia. These willing participants were all active sex workers, whom on a weekly basis, were actively engaged in sexual intercourse with the general public. This demographic was selected as a “high risk” group of individuals that frequently encounter many forms of sexually transmitted infections. Throughout the study, the “HOCl test” group was compared with the “placebo” group in an effort to gauge the efficacy of prevention and treatment for contact-to-contact sexually transmitted infections as well as common infections related to sex. […] The patients were required to complete extensive evaluations regarding their sexual health and lifestyles. The duration of the study was six months.
# [22] = system: MRSA; test: Efficacy at 30 seconds (Table 2); format: cell-based, methicillin-resistant staphylococcus aureus; settings: 0.01 to 0.05% aqueous solution
# [23] = system: E. coli Carbapenem Resistant; test: Efficacy at 30 seconds (Table 2); format: cell-based; settings: 0.01 to 0.05% aqueous solution
# [24] = system: Herpes simplex virus; test: Antimicrobial efficacy of HOCl skin cleanser (Table 1); format: cell-based; settings: 0.01% HOCl; 30 seconds
# [25] = system: Salmonella enteritidis; test: as above; format: cell-based; settings: 0.01% HOCl; 30 seconds
# [26] = system: Klebsiella oxytoca; test: as above; format: cell-based; settings: 0.01% HOCl; 30 seconds
# [27] = system: Campylobacter rectus; test: as above; format: cell-based; settings: 0.01% HOCl; 30 seconds
# [28] = system: Candida albicans; test: as above; format: cell-based; settings: 0.01% HOCl; 30 seconds
# [29] = system: Staphylococcus epidermidis; test: as above; format: cell-based; settings: 0.01% HOCl; 30 seconds
# [30] = HOCl (0.046%) test group, 24 patients
smiles,measurement,setting,value
"OCl [HOCl, hypochlorous acid]",% Reduction,[1],99.999%
same,Log Reduction,[1],>5.35 Log10
same,USP <51> Antimicrobial Effectiveness Testing outcome,[2],meets all requirements of USP <51> Antimicrobial Effectiveness Testing
same,% Reduction,[3],99.999%
same,Log Reduction,[3],>5.47 Log10
same,mortalities,"[4]; 90 days, 1000 mg/Kg Body weight, Wistar Rats","No mortalities, considered"
same,toxicity assessment,"[4]; rat, in vivo, 1000 mg/kg",non-toxic
same,outcome in Fournier's gangrene,[5],prevention of further spread of the disease as well as prevention of amputation and additional complications
same,% Reduction,[6],99.999%
same,Log Reduction,[6],>5.76 Log10
same,% Reduction,[7],99.999%
same,Log Reduction,[7],>5.60 Log10
same,% Reduction,[8],99.999%
same,Log Reduction,[8],>5.96 Log10
same,% Reduction,[9],>99.99%
same,Log Reduction,[9],>4.81 Log10
same,% Reduction,[10],99.999%
same,Log Reduction,[10],>5.32 Log10
same,% Reduction,[11],99.999%
same,Log Reduction,[11],>5.65 Log10
same,% Reduction,[12],99.999%
same,Log Reduction,[12],>5.59 Log10
same,% Reduction,[13],99.999%
same,Log Reduction,[13],>6.15 Log10
same,% Reduction,[14],99.999%
same,Log Reduction,[14],>5.50 Log10
same,% Reduction,[15],99.999%
same,Log Reduction,[15],>5.90 Log10
same,% Reduction,[16],99.999%
same,Log Reduction,[16],>5.35 Log10
same,% Reduction,[17],99.999%
same,Log Reduction,[17],>5.51 Log10
same,Log Reduction,[18],>5.87 Log10
same,efficacy,[19],99.999%
same,Acute Lethal Dose,[20],> 5000 mg/kg body weight for males
same,rashes from irritation,[21]; [30],two
same,"rashes from irritation, increase",[21]; [30],8.3%
same,total infections,[21]; [30],three
same,"total infections, increase",[21]; [30],13.5%
same,urinary tract infection,[21]; [30],one
same,"urinary tract infection, increase",[21]; [30],4.2%
same,yeast infections,[21]; [30],zero
same,reported contact-to-contact STIs,"[21]; HOCl (0.046%) test group, 24 patients, 85% confidence level",zero
same,change of the pH of the vagina,[21]; all 47 patients,No significant change
same,% Reduction,[22],99.999%
same,Log Reduction,[22],>5.89 Log10
same,% Reduction,[23],99.999%
same,Log Reduction,[23],>5.57 Log10
same,% Reduction,[24],99.99%
same,Log Reduction,[24],>5.8 Log10
same,% Reduction,[25],99.999%
same,Log Reduction,[25],>6.4 Log10
same,% Reduction,[26],99.99%
same,Log Reduction,[26],>5.50 Log10
same,% Reduction,[27],99.99%
same,Log Reduction,[27],>5.96 Log10
same,% Reduction,[28],99.99%
same,Log Reduction,[28],>5.98 Log10
same,% Reduction,[29],99.999%
same,Log Reduction,[29],>5.8 Log10
